Values of other authors, collected in publication PMC12141164, “Phase-1 study of vamotinib (PF-114), a 3rd generation BCR::ABL1 tyrosine kinase-inhibitor, in chronic myeloid leukaemia” (Annals of Hematology, 2025).
Where two headings read alike, the source gives them in different places.

Columns and labels:
Conditions in all cases: cited from earlier work
PDGFRa = system: PDGFRa
EPHA6 = system: EPHA6
EPHA7 = system: EPHA7
TAK1 = system: TAK1
TIE2 = system: TIE2
VEGFR2 = system: VEGFR2
ZAK = system: ZAK
[1] = parameters: method as in PMID 35982483

Compound | inhibition of PDGFRa (PDGFRa; off-target kinases) | inhibition of EPHA6 (EPHA6) | inhibition of EPHA7 (EPHA7) | inhibition of TAK1 (TAK1) | inhibition of TIE2 (TIE2) | inhibition of VEGFR2 (VEGFR2) | inhibition of ZAK (ZAK) | most common non-hematologic adverse reaction ([1]; clinical evaluation) | drug related cardiovascular adverse events ([1]; recent clinical studies) | inhibition of PDGFRa (PDGFRa; kinase inhibition profiles) | inhibition of EPHA6 (EPHA6; kinase inhibition profiles) | inhibition of EPHA7 (EPHA7; kinase inhibition profiles) | inhibition of TAK1 (TAK1; kinase inhibition profiles) | inhibition of TIE2 (TIE2; kinase inhibition profiles) | inhibition of VEGFR2 (VEGFR2; kinase inhibition profiles) | inhibition of ZAK (ZAK; kinase inhibition profiles)
Cc1ccc(C(=O)Nc2ccc(CN3CCN(C)CC3)c(C(F)(F)F)c2)cc1C#Cc1cnc2[nH]ncc2c1 [olverembatinib] | among the off-target kinases | not | not | potent inhibitor | potent inhibitor | not | potent inhibitor | skin pigmentation | some drug related cardiovascular adverse events, including vascular occlusions |  |  |  |  |  |  | 
Cc1ccc(C(=O)Nc2ccc(CN3CCN(C)CC3)c(C(F)(F)F)c2)cc1C#Cc1cnc2cccnn12 [ponatinib] |  |  |  |  |  |  |  |  |  | potently inhibited | inhibition | inhibition | inhibition | inhibition | inhibition | inhibition
